# Where a name gives a salt, the structure may show the parent alone.
# Target: T1, HIV protease (Human immunodeficiency virus type 1 group M subtype B, UniProt P04585)
# T1 construct: HIV protease consists of 99 amino acids and is evidently split off by itself from the pol polyprotein
# Assay: Inhibition of HIV protease (cleavage of H-Ser-Phe-Asn-Phe-Opr-Gln-Ile-OH, HPLC)
# Format: biochemical
# Details: not given
# Description: The compounds of the formula (I) according to the invention have enzyme-inhibiting properties. In particular, they inhibit the action of retroviral aspartyl proteases, such as that of HIV protease. Their enzyme-inhibitory action, which is in the milli- to subnanomolar range, can be determined as follows.
# The heptapeptide: H-Ser-Phe-Asn-Phe-Pro-Gln-Ile-OH (P. L. Darke et al., Biophys. Res. Commun. 156 (1988) 297-303), inter alia, has hitherto been used as the substrate of HIV protease. HIV protease cleaves the substrate here between the second Phe and Pro.
# General instructions for testing inhibitors of HIV proteases: a) Preparation of the substrate solution:
# 2 mg of H-Ser-Phe-Asn-Phe-Opr-Gln-Ile-OH (H-Opr-OH=5-oxaproline) are dissolved in 1 ml of MGTE15 buffer (use of ultrasound if necessary) and the solution is then filtered over a sterile filter (0.45 μm). […]
# b) Preparation of the inhibitor solution:
# 2.5 times the desired molarity of the inhibitor per ml of solution are weighed out and dissolved in DMSO (10% of the final volume). The solution is diluted to the final volume with MGTE15 buffer and filtered over a sterile filter (0.45 μm). […]
# c) Preparation of the protease solution:
# 5 μl of the HIV protease solution are diluted with MGTE25 buffer as required.
# 10 μl portions of the substrate solution are pipetted into test-tubes (16×100) with a screw cap. For the blank experiment, 10 μl of MGTE15 buffer containing 10% of DMSO are pipetted into a test-tube. 10 μl portions of the inhibitor solutions are added to the other test-tubes. The mixtures are incubated at 37° C. for 5-10 minutes and 5 μl of the protease solution are then added to each sample, After reaction at 35° C. for 2 hours, 10 or 20 μl (depending on the sensitivity of the HPLC apparatus) of each sample are then pipetted off, introduced into microvials and diluted with 120 μl of the HPLC mobile phase. […]
# e) Conditions for the HPLC analysis:
# 20% (weight/weight) of aceto-
# Column: Merck ®LICHROSORB RP18 (5 μm) 250×4
# Column temperature: 42° C.
# Detector parameters: 215 nm, 0.08 AUF, 18.2° C.
# Analysis time: 11 minutes
# Retention time of the substrate: 8.1 minutes
# Retention time of the N-terminal tetrapeptide: 3.9 minutes
# 20 mM morpholinoethanesulfonic acid (MES)
# 15% (weight/volume) of glycerol
# 0.1% (volume/volume) of Triton ×100
# 1 mM phenylmethylsulfonyl fluoride (PMSF)
# 25% (weight/volume) of glycerol, additionally 1 mM dithiothreitol (DTT) The MES, EDTA, NaCl, DTT and PMSF are weighed into a conical flask and dissolved in a little water and the pH is brought to 6. The corresponding amount of glycerol is weighed into a measuring flask and ®Triton ×100 is pipetted in. The aqueous solution is transferred to the measuring flask and made up to the mark with water.
# A 0.1M solution is prepared from orthophosphoric acid (FLUKA extra pure analytical grade). This solution is brought to exactly pH 2.5 with triethylamine (FLUKA extra pure analytical grade). The weight of the solution is determined and the corresponding amount of acetonitrile (fume cupboard) is weighed in. The mixture is mixed thoroughly and degassed with helium 5.0 for about 5 minutes.
# Under the conditions chosen here, heptapeptides are separated from the N-terminal tetrapeptide formed during enzymatic cleavage. The percentage content of the tetrapeptide peak in respect of the sum of tetrapeptide+heptapeptide corresponds to the cleaving rate. The following IC50 values indicate the inhibitor concentration at which the cleavage rate is halved.
row,SMILES,IC50 [nM]
1,"CC(C)[C@H](NC(=O)[C@H](Cc1ccccc1)NC(=O)[C@H](COC(C)(C)C)NC(=O)OC(C)(C)C)C(=O)N[C@@H](Cc1ccccc1)[C@@H](O)[C@H](O)[C@H](Cc1ccccc1)NC(=O)[C@@H](NC(=O)[C@H](Cc1ccccc1)NC(=O)[C@H](COC(C)(C)C)NC(=O)OC(C)(C)C)C(C)C [Example 15, N,N'-bis-(tert.-Butoxycarbonyl-L-(O-tert.-butylseryl)-L-phenylalanyl-L-valyl)-2S,5S-diamino-1,6-diphenyl-hexane-3R,4R-diol]",400

# Same assay, conditions: inhibitor concentration at which the cleavage rate is halved; pH 6, 2 hours; read-out: IC50
row,SMILES,IC50 [nM]
1,"CC(C)[C@H](NC(=O)C(Cc1ccccc1)Cn1ccnc1)C(=O)N[C@@H](Cc1ccccc1)[C@H](O)[C@@H](O)[C@H](Cc1ccccc1)NC(=O)[C@@H](NC(=O)C(Cc1ccccc1)Cn1ccnc1)C(C)C (single isomer, unassigned) [Example 95, N,N'-bis-<(2-(1-Imidazolylmethyl)-3-phenylpropionyl)-L-valyl->-2S,5S-diamino-1,6-diphenylhexane-3S,4S-diol]",380
2,"CC(C)C(NC(=O)C(CN)Cc1ccccc1)C(=O)NC(Cc1ccccc1)C(O)C(O)C(Cc1ccccc1)NC(=O)C(NC(=O)C(CN)Cc1ccccc1)C(C)C (single isomer, unassigned) [Example 104, N,N'-bis-<(3-Amino-2-benzyl)-propionyl-L-valyl>-2S,5S-diamino-1,6-diphenylhexane-3R,4R-diol dihydrochloride]",24
3,"CC(C)[C@H](NC(=O)C(CNC(=O)OC(C)(C)C)Cc1ccccc1)C(=O)N[C@@H](Cc1ccccc1)[C@@H](O)[C@H](O)[C@H](Cc1ccccc1)NC(=O)[C@@H](NC(=O)C(CNC(=O)OC(C)(C)C)Cc1ccccc1)C(C)C (single isomer, unassigned) [Example 105, N,N'-bis-<(2-Benzyl-3-tert.-butoxycarbonylamino)-propionyl-L-valyl>-2S,5S-diamino-1,6-diphenylhexane-3R,4R-diol]",19
4,"CC(C)[C@H](NC(=O)[C@H](Cc1ccccc1)NC(=O)OC(C)(C)C)C(=O)N[C@@H](Cc1ccccc1)[C@@H](O)[C@H](O)[C@H](Cc1ccccc1)NC(=O)[C@@H](NC(=O)[C@H](Cc1ccccc1)NC(=O)OC(C)(C)C)C(C)C [Example 1, N,N,-bis-(tert.-Butoxycarbonyl-L-phenylalanyl-L-valyl)-2S,5S-diamino-1,6-diphenylhexane-3R,4R-diol]",10
5,"CC(C)[C@H](NC(=O)[C@H](Cc1ccccc1)NC(=O)OC(C)(C)C)C(=O)N[C@@H](Cc1ccccc1)[C@H](O)[C@@H](O)[C@H](Cc1ccccc1)NC(=O)[C@@H](NC(=O)[C@H](Cc1ccccc1)NC(=O)OC(C)(C)C)C(C)C [Example 6, N,N'-bis-(tert.-Butoxycarbonyl-L-phenylalanyl-L-valyl)-2S,5S-diamino-1,6-diphenylhexane-3S,4S-diol]",8.8
6,"CC(C)[C@H](NC(=O)[C@H](Cc1ccccc1)NC(=O)OC(C)(C)C)C(=O)N[C@@H](Cc1ccccc1)[C@H](O)[C@H](O)[C@H](Cc1ccccc1)NC(=O)[C@@H](NC(=O)[C@H](Cc1ccccc1)NC(=O)OC(C)(C)C)C(C)C [Example 7, N,N'-bis-(tert.-Butoxycarbonyl-L-phenylalanyl-L-valyl)-2S,5S-diamino-1,6-diphenylhexane-3R,4S-diol]",18
7,"CC(C)[C@H](NC(=O)[C@@H](N)CCCCN)C(=O)N[C@@H](Cc1ccccc1)[C@@H](O)[C@H](O)[C@H](Cc1ccccc1)NC(=O)[C@@H](NC(=O)[C@@H](N)CCCCN)C(C)C [Example 10, N,N'-bis-(L-lysyl-L-valyl)-2S,5S-diamino-1,6-diphenylhexane-3R,4R-diol tetrahydrochloride]",17
8,"CC(C)[C@H](NC(=O)[C@H](CCCCN)NC(=O)OC(C)(C)C)C(=O)N[C@@H](Cc1ccccc1)[C@@H](O)[C@H](O)[C@H](Cc1ccccc1)NC(=O)[C@@H](NC(=O)[C@H](CCCCN)NC(=O)OC(C)(C)C)C(C)C [Example 11, N,N'-bis-(Nα-<tert.-Butoxycarbonyl>-L-lysyl-L-valyl)-2S,5S-diamino-1,6-diphenyl-hexane-3R,4R-diol dihydrochloride]",0.8
9,"CC(C)[C@H](NC(=O)[C@H](Cc1ccccc1)NC(=O)[C@@H](N)CO)C(=O)N[C@@H](Cc1ccccc1)[C@@H](O)[C@H](O)[C@H](Cc1ccccc1)NC(=O)[C@@H](NC(=O)[C@H](Cc1ccccc1)NC(=O)[C@@H](N)CO)C(C)C [Example 14, N,N'-bis-(L-Seryl-L-phenylalanyl-L-valyl)-2S,5S-diamino-1,6-diphenylhexane-3R,4R-diol dihydrochloride]",1
10,"CC(C)[C@H](NC(=O)[C@@H](N)Cc1ccccc1)C(=O)N[C@@H](Cc1ccccc1)[C@H](O)[C@@H](O)[C@H](Cc1ccccc1)NC(=O)[C@@H](NC(=O)[C@@H](N)Cc1ccccc1)C(C)C [Example 17, N,N'-bis-(L-Phenylalanyl-L-valyl)-2S,5S-diamino-1,6-diphenylhexane-3S,4S-diol dihydrochloride]",0.85
11,"CC(C)[C@H](NC(=O)[C@H](Cc1ccccc1)NC(=O)[C@@H](N)CO)C(=O)N[C@@H](Cc1ccccc1)[C@H](O)[C@@H](O)[C@H](Cc1ccccc1)NC(=O)[C@@H](NC(=O)[C@H](Cc1ccccc1)NC(=O)[C@@H](N)CO)C(C)C [Example 19, N,N'-bis-(L-Seryl-L-phenylalanyl-L-valyl)-2S,5S-diamino-1,6-diphenylhexane-3S,4S-diol dihydrochloride]",0.7
12,"CC(C)[C@H](NC(=O)[C@@H](N)Cc1ccccc1)C(=O)N[C@H](CNC[C@H](Cc1ccccc1)NC(=O)[C@@H](NC(=O)[C@@H](N)Cc1ccccc1)C(C)C)Cc1ccccc1 [Example 21, Bis-(N-(L-phenylalanyl-L-valyl)-2S-amino-3-phenylpropyl)-amine trihydrochloride]",220
13,"CC(C)(C)OC(=O)N[C@H](CNC[C@H](Cc1ccccc1)NC(=O)OC(C)(C)C)Cc1ccccc1 [Example 25, Bis-(N-tert.-butoxycarbonyl-2S-amino-3-phenylpropyl)-amine hydrochloride]",18000

# Same assay, conditions: inhibitor concentration at which the cleavage rate is halved; unit as printed for Ex. 8; read-out: IC50
row,SMILES,IC50 [nM]
1,"CC(C)[C@H](NC(=O)OC(C)(C)C)C(=O)N[C@@H](Cc1ccccc1)[C@H](O)[C@@H](O)[C@H](Cc1ccccc1)NC(=O)[C@@H](NC(=O)OC(C)(C)C)C(C)C [Example 8, N,N'-bis-(tert.-Butoxycarbonyl-L-valyl)-2S,5S-diamino-1,6-diphenylhexane-3S,4S-diol]",30000

# Same assay, conditions: inhibitor concentration at which the cleavage rate is halved; unit as printed for Ex. 13; read-out: IC50
row,SMILES,IC50 [nM]
1,"CC(C)[C@H](NC(=O)[C@H](Cc1cccc2ccccc12)CS(=O)(=O)C(C)(C)C)C(=O)N[C@@H](Cc1ccccc1)[C@@H](O)[C@H](O)[C@H](Cc1ccccc1)NC(=O)[C@@H](NC(=O)[C@H](Cc1cccc2ccccc12)CS(=O)(=O)C(C)(C)C)C(C)C [Example 13, N,N'-bis-<(2S-(1,1-Dimethylethylsulfonylmethyl)-3-(1-naphthyl)-propionyl)-L-valyl>-2S,5S-diamino-1,6-diphenylhexane-3R,4R-diol]",1.3

# Same assay, conditions: read-out: IC50
row,SMILES,IC50 [nM]
1,"CC(C)(C)OC(=O)N[C@@H](Cc1ccccc1)[C@H](O)[C@H](O)[C@H](Cc1ccccc1)NC(=O)OC(C)(C)C [Example 5, N,N'-bis-(tert.-Butoxycarbonyl)-2S,5S-diamino-1,6-diphenylhexane-3R,4S-diol]",3600
2,"CC(C)[C@H](NC(=O)[C@@H](N)Cc1ccccc1)C(=O)N[C@@H](Cc1ccccc1)[C@H](O)[C@H](O)[C@H](Cc1ccccc1)NC(=O)[C@@H](NC(=O)[C@@H](N)Cc1ccccc1)C(C)C [Example 18, N,N'-bis-(L-Phenylalanyl-L-valyl)-2S,5S-diamino-1,6-diphenylhexane-3R,4S-diol dihydrochloride]",1.2

# — patent publication US5712417A, “Inhibitors of retroviral proteases” (Abbott Laboratories, priority 1989, dated 1998)
